Measured values taken from the supplement of paper PMC5908809.

How the values were obtained:
Test in all cases: relative IC50 (inflection point of fitted viability curve, relative to fitted max inhibition); higher = less sensitive
Conditions in all cases: 72 h
KAI3 (IL-2 2.5 ng/mL) = test system: KAI3 (IL-2 2.5 ng/mL)
Procedure: (§1)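 Drug sensitivity and resistance testing: 5 concentrations over a 10,000-fold range, 72 h at 37 °C, viability by CellTiter-Glo normalised to DMSO and benzethonium chloride controls. IC50 is the inflection point of a logistic fit (min fixed at 0, max fitted), so it is relative to the fitted maximal inhibition. Kept only where fitted max inhibition is at least 50%.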

DERL-7 (IL-2 2.5 ng/mL) = test system: DERL-7 (IL-2 2.5 ng/mL)
Procedure: as §1

IMC-1 (IL-2 20 ng/mL) = test system: IMC-1 (IL-2 20 ng/mL)
Procedure: as §1

KHYG-1 (IL-2 2.5 ng/mL) = test system: KHYG-1 (IL-2 2.5 ng/mL)
Procedure: as §1

[1] = test system: normal primary NK cells, pool 2 (3 donors) (IL-2 2.5 ng/mL)
Procedure: as §1

[2] = test system: normal primary NK cells, pool 3 (3 donors) (IL-2 2.5 ng/mL)
Procedure: as §1

SNK-6 (IL-2 2.5 ng/mL) = test system: SNK-6 (IL-2 2.5 ng/mL)
Procedure: as §1

NKL (IL-2 2.5 ng/mL) = test system: NKL (IL-2 2.5 ng/mL)
Procedure: as §1

NK-YS (IL-2 2.5 ng/mL) = test system: NK-YS (IL-2 2.5 ng/mL)
Procedure: as §1

[3] = test system: normal primary NK cells, pool 1 (3 donors) (IL-2 2.5 ng/mL)
Procedure: as §1

YT (IL-2 2.5 ng/mL) = test system: YT (IL-2 2.5 ng/mL)
Procedure: as §1

NK-92 (IL-2 2.5 ng/mL) = test system: NK-92 (IL-2 2.5 ng/mL)
Procedure: as §1

[4] = test system: normal primary NK cells, pool 1 (3 donors), resting (IL-2 0 ng/mL)
Procedure: as §1

Compound | relative IC50 (KAI3 (IL-2 2.5 ng/mL)) [nM] | relative IC50 (DERL-7 (IL-2 2.5 ng/mL)) [nM] | relative IC50 (IMC-1 (IL-2 20 ng/mL)) [nM] | relative IC50 (KHYG-1 (IL-2 2.5 ng/mL)) [nM] | relative IC50 [1] [nM] | relative IC50 [2] [nM] | relative IC50 (SNK-6 (IL-2 2.5 ng/mL)) [nM] | relative IC50 (NKL (IL-2 2.5 ng/mL)) [nM] | relative IC50 (NK-YS (IL-2 2.5 ng/mL)) [nM] | relative IC50 [3] [nM] | relative IC50 (YT (IL-2 2.5 ng/mL)) [nM] | relative IC50 (NK-92 (IL-2 2.5 ng/mL)) [nM] | relative IC50 [4] [nM]
Cc1c2oc3c(C)ccc(C(=O)N[C@@H]4C(=O)N[C@H](C(C)C)C(=O)N5CCC[C@H]5C(=O)N(C)CC(=O)N(C)[C@@H](C(C)C)C(=O)O[C@@H]4C)c3nc-2c(C(=O)N[C@@H]2C(=O)N[C@H](C(C)C)C(=O)N3CCC[C@H]3C(=O)N(C)CC(=O)N(C)[C@@H](C(C)C)C(=O)O[C@@H]2C)c(N)c1=O [Dactinomycin] | 4.77 | 1.43 | 12.2 | 2.49 | 5.98 | 12.7 | 0.27 | 0.68 | 0.55 | 13.4 | 0.98 | 24.7 | 4.39
O=C(/C=C/c1cccnc1)NCCCCC1CCN(C(=O)c2ccccc2)CC1 [Daporinad] | 3.88 | 1.27 | 3.61 | 3.01 | 0.63 | 0.87 | 0.75 | 2.57 | 0.77 | 0.52 | 6.27 | 6.07 | 0.29
COc1cccc2c1C(=O)c1c(O)c3c(c(O)c1C2=O)C[C@@](O)(C(C)=O)C[C@@H]3O[C@H]1C[C@H](N)[C@H](O)[C@H](C)O1 [Daunorubicin] | 54.5 | 21.7 | 19.2 | 38.2 | 20.8 | 42 | 34.7 | 3.74 | 31.1 | 21.6 | 40.8 | 45.7 | 15.7
CC(=O)N(O)CCCCCNC(=O)CCC(=O)N(O)CCCCCNC(=O)CCC(=O)N(O)CCCCCN [Deferoxamine] |  |  | 3210 |  |  | 1580 |  |  |  |  |  |  | 
CCN(CC)C(=S)SSC(=S)N(CC)CC [Disulfiram] | 16200 | 194 | 1590 | 2300 | 224 | 320 | 40300 | 256 | 987 | 323 | 25700 | 30100 | 309
CNC(=O)c1ccc(N2C(=S)N(c3ccc(C#N)c(C(F)(F)F)c3)C(=O)C2(C)C)cc1F [Enzalutamide] | > 10000 | > 10000 |  |  |  | > 10000 |  |  |  |  |  |  | 
O=c1[nH]c(=O)n([C@H]2C[C@H](O)[C@@H](CO)O2)cc1F [Floxuridine] | 10.1 | 31 | 128 | 8.42 |  | > 10000 | 68.6 | 75.2 | 28.9 |  | 286 | 19.5 | 
CCOC(=O)CCNc1cc(N2CCc3ccccc3CC2)nc(-c2ccccn2)n1 [GSK-J4] | 3340 | 2480 | 1230 | 1740 | 3280 | 2110 | 3020 | 3370 | 3320 | 2100 | 2670 | 837 | 1280
C[C@@H]1C=C2C(=O)O[C@@H]3CC[C@H](C1)[C@]23O [Galiellalactone] | 3340 | 3110 |  | 5240 | 5560 | 7360 | 3970 |  | 3660 | 4800 | 8550 | 5040 | 3720
Cc1cc(Nc2cc(CN3CCOCC3)c3nc(C)c(Cc4ccc(Cl)cc4F)n3n2)n[nH]1 [Gandotinib] | 89.6 | 163 | 1260 | 107 | 183 | 669 | 230 | 75 | 260 | 362 | 448 | 236 | 
O=C(Nc1ccncc1)C(=O)c1cn(Cc2ccc(Cl)cc2)c2ccccc12 [Indibulin] | 45 | 922 | 339 | 103 |  |  | 2.97 | 85.6 | 77.7 | > 10000 | 131 | 48.5 | 
NC(=O)c1ccc(I)c([N+](=O)[O-])c1 [Iniparib] |  |  |  |  |  |  |  |  |  | 1620 |  |  | 1360
O=C(c1ccc(/C=C/c2n[nH]c3ccccc23)cc1)N1CCNCC1 [KW-2449] |  | 920 | > 2500 | 807 |  | > 2500 | 687 |  |  |  |  |  | 
CCN(CC)CCCC(C)Nc1c2ccc(Cl)cc2nc2ccc(OC)cc12 (centres undefined) [Mepacrine] |  |  | 1500 |  | 1220 | 1550 |  |  |  |  |  |  | 
C[C@H]1C[C@@H]2[C@H]([C@@H](O)C[C@@]3(C)[C@H]2CC[C@]3(O)C(=O)CO)[C@@]2(C)C=CC(=O)C=C12 [Methylprednisolone] |  | 22.1 | > 10000 | 197 | 41.7 | 88.8 |  | 13.3 |  | 33.4 | 164 |  | 9.66
FC(F)(F)c1ccc(/C=C/c2nc(COc3ccc(CCCCn4ccnn4)cc3)co2)cc1 [Mubritinib] |  |  | 11.2 | 45.7 |  |  |  | 56 | 42 | 12.2 |  |  | 12
CN(C)C(=O)c1cc2cnc(Nc3ccc(N4CCNCC4)cn3)nc2n1C1CCCC1 [NVP-LEE011] |  |  |  | 1060 |  |  |  |  |  | 2200 |  |  | 630
COC(=O)c1ccc2c(c1)NC(=O)/C2=C(\Nc1ccc(N(C)C(=O)CN2CCN(C)CC2)cc1)c1ccccc1 [Nintedanib] | 1850 | 1210 | 3980 | 1720 | 1580 | 2730 | 4280 | 902 | 1700 | 1200 | 2580 | 1070 | 1010
Cc1sc2c(c1C)C(c1ccc(Cl)cc1)=N[C@@H](CC(=O)Nc1ccc(O)cc1)c1nnc(C)n1-2 [OTX015] | 437 | 48.1 | 630 | 145 | 393 | 804 | 43 | 75.2 | 229 | 171 | 241 |  | 
O=C(O)C(=O)O.[NH-][C@@H]1CCCC[C@H]1[NH-].[Pt+2] [Oxaliplatin] |  |  | 9490 |  | 9290 | 9130 |  |  |  |  |  |  | 
CC(=O)c1c(C)c2cnc(Nc3ccc(N4CCNCC4)cn3)nc2n(C2CCCC2)c1=O [Palbociclib] | 3090 | 1380 | 2620 | 279 | 2850 | 3430 |  | 1550 | 413 | 3580 |  | 1780 | 4040
Cc1cnc(NC(=O)Nc2cc(Br)c(C)cc2OC[C@@H]2CNCCO2)cn1 [Rabusertib] | 203 |  |  | 197 |  |  | 179 | 192 | 279 | > 1000 |  | 172 | 
CNC(=O)c1cc(Oc2ccc(NC(=O)Nc3cc(C(C)(C)C)nn3-c3ccc4ncccc4c3)c(F)c2)ccn1 [Rebastinib] |  |  |  |  | > 1000 | > 1000 |  |  |  | > 1000 |  |  | 
CCS(=O)(=O)c1cccc(-c2cc(C(=O)NC3CCN(C)CC3)c(C)c3[nH]c4ncc(C)cc4c23)c1 [TAK-901] | 116 | 50.2 | 116 | 208 |  |  | 135 | 105 | 30.8 | 303 |  |  | 
COc1cc(Nc2ncc(F)c(Nc3ccc4c(n3)NC(=O)C(C)(C)O4)n2)cc(OC)c1OC [Tamatinib] | 536 |  | 4100 | 1340 |  | 2800 | 3590 | 992 | 1650 |  | 2580 | 2180 | > 10000
COc1cccc2c1c(O)c(C(=O)N(C)c1ccc(C(F)(F)F)cc1)c(=O)n2C [Tasquinimod] |  | > 10000 |  |  | > 10000 | > 10000 |  |  |  |  |  |  | 
CC(C)C[C@@H](C(=O)N[C@H](C(=O)OC1CCCC1)c1ccccc1)[C@H](O)C(=O)NO [Tosedostat] |  | 23.3 |  | 606 | 903 |  |  | 1960 |  | 942 | 1520 |  | 274
CC1=C(/C=C/C(C)=C/C=C/C(C)=C/C(=O)O)C(C)(C)CCC1 [Tretinoin] |  |  | > 10000 |  |  | > 10000 |  |  |  |  |  |  | 
CC1(C)CCC(CN2CCN(c3ccc(C(=O)NS(=O)(=O)c4ccc(NCC5CCOCC5)c([N+](=O)[O-])c4)c(Oc4cnc5[nH]ccc5c4)c3)CC2)=C(c2ccc(Cl)cc2)C1 [Venetoclax] | 7.28 | 211 |  | 1280 |  |  | 34.8 | 115 | 1450 | 859 | 415 | 1730 | 8.76
